Measured values reported in patent publication US9072791B2, “Photostabilized pharmaceutical compositions” (DENKI KAGAKU KOGYO KABUSHIKI KAISHA, priority 2008, dated 2015).
“And” between values parts separate entries of the source, which are not always exact repeats. Equal values may be shown once. Read-outs that look alike come from different tables or passages of the source.

Assays:
[1] = Photostability test with additional light-shielding film LUMICOOL 1905 (Example 6); format: physicochemical; conditions: for Molecular weight (×10^4), irradiation time 0 h / Molecular weight (×10^4), irradiation time 150 h / Molecular weight (×10^4), irradiation time 300 h / Percent Conjugation (%), irradiation time 0 h / Percent Conjugation (%), irradiation time 150 h / Percent Conjugation (%), irradiation time 300 h: vial wrapped with LUMICOOL 1905;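 on all read-outs here: molecular weight and drug conjugation percentage of the test conjugate, both determined by the method given for the first production procedure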
[2] = Photostability test in glass vials not shielded from light: gelation, molecular weight, percent conjugation of MTX (Example 4(2)); format: physicochemical
Experimental: Various photostabilizers (methyl p-hydroxybenzoate (methyl paraben), salicylic acid Na, thiosulfuric acid Na, thioglycolic acid Na, N-acetyltryptophan, and tryptophan) were each dissolved in a preparation buffer (0.9% NaCl containing 2 mM phosphate buffer, pH 7.4) to give a concentration of 1 or 10 mg/ml and thereafter filtered aseptically by passage through a 0.2-μm filter (Millex GV). A powder of the HA-MTX conjugate prepared in accordance with Production 1 was metered aseptically and dissolved in the filtered, photostabilizer-containing preparation buffer to give a concentration of 10 mg/mL; the thus prepared solutions were used as test samples. To prepare a control solution, the HA-MTX conjugate was dissolved in a photostabilizer-free preparation buffer at a concentration of 10 mg/mL.
The thus prepared solutions were put into glass vials not shielded from light and then irradiated with light.
The irradiation was so performed as to give an illuminance of 4000 Lux at 25° C. from a fluorescent lamp for use in a photostability test (TOSHIBA FL20S•D-EDL-D65) by means of a photostability tester (ETAC LABONIC LA110). After the lapse of specified periods (0 h, 25 h, 50 h, 100 h, 150 h, and 300 h) of irradiation, samples were taken and not only checked for gelation but also measured for the molecular weight of the HA-MTX conjugate and the percent conjugation of MTX (in the HA-MTX conjugate).
To evaluate the degree of gelation, the surface of each sample solution was pierced with a spatula and visually checked for the formation of an interface as the result of gelation. […] The apparatus used in gel filtration chromatography was equipped with OHpackSB-806HQ (Shodex) as a column, RI-71 (Shodex) as an […], and 875-UV (JASCO, detection wavelength: 304 nm) as a UV detector and analysis was conducted under the following conditions. Eluent: 50 mM sodium phosphate aqueous solution (pH 6.0); elution rate: 0.6 mL/min; column temperature: 40° C. By the above-described gel filtration chromatography, the elution times of the conjugate of interest were determined and the molecular weight of the same conjugate was determined from the relationship between the elution times and molecular weights of standard substances. As the standard substances, hyaluronic acid samples were prepared in varying molecular weights and their accurate values were calculated by the limiting viscosity method before it was used.

[3] = added at 1 mg/mL, not shielded from light
[4] = additive 1 mg/ml, 4000 Lux, 25° C., not shielded from light
[5] = additive 10 mg/ml, 4000 Lux, 25° C., not shielded from light

SMILES | Molecular weight (×10^4), irradiation time 0 h ([1]; additive 1 mg/mL) | Molecular weight (×10^4), irradiation time 150 h ([1]; additive 1 mg/mL) | Molecular weight (×10^4), irradiation time 300 h ([1]; additive 1 mg/mL) | Percent Conjugation (%), irradiation time 0 h ([1]; additive 1 mg/mL) [%] | Percent Conjugation (%), irradiation time 150 h ([1]; additive 1 mg/mL) [%] | Percent Conjugation (%), irradiation time 300 h ([1]; additive 1 mg/mL) [%] | Molecular weight (×10^4), irradiation time 0 h [2, 4] | Molecular weight (×10^4), irradiation time 25 h [2, 4] | Molecular weight (×10^4), irradiation time 50 h [2, 4] | Molecular weight (×10^4), irradiation time 100 h [2, 4] | Molecular weight (×10^4), irradiation time 150 h [2, 4] | Molecular weight (×10^4), irradiation time 300 h [2, 4] | Percent Conjugation (%) of MTX, irradiation time 0 h [2, 4] [%] | Percent Conjugation (%) of MTX, irradiation time 25 h [2, 4] [%] | Percent Conjugation (%) of MTX, irradiation time 50 h [2, 4] [%] | Percent Conjugation (%) of MTX, irradiation time 100 h [2, 4] [%] | Percent Conjugation (%) of MTX, irradiation time 150 h [2, 4] [%] | Percent Conjugation (%) of MTX, irradiation time 300 h [2, 4] [%] | Molecular weight (×10^4), irradiation time 0 h ([1]; additive 10 mg/mL) | Molecular weight (×10^4), irradiation time 150 h ([1]; additive 10 mg/mL) | further results
COC(=O)c1ccc(O)cc1 [Methyl paraben, methyl p-hydroxybenzoate] | 187 ×10^4 | 184 ×10^4 | 179 ×10^4 | 2.2 | 2.2 | 2.2 | 187 ×10^4 | 155 ×10^4 | 127 ×10^4 | 107 ×10^4 | 126 ×10^4 | 65 ×10^4 | 2.2 | 2.0 | 2.1 | 2.0 | 2.1 | 1.9 |  |  | stabilizing effects (suppressing effects on the drop in molecular weight and the drop in percent conjugation of MTX) [1]: comparable to those obtained in the case where complete shielding of light was ensured by aluminum foil; suppressing drops in the molecular weight and percent conjugation [2, 3]: could suppress drops in the molecular weight and percent conjugation for irradiation periods that did not exceed about 100 hours
CC(=O)N[C@@H](Cc1c[nH]c2ccccc12)C(=O)O [N-acetyltryptophan] | 178 ×10^4 | 172 ×10^4 | 136 ×10^4 | 2.2 | 2.3 | 2.2 | 178 ×10^4 | 164 ×10^4 | 166 ×10^4 | 138 ×10^4 | 128 ×10^4 | 78 ×10^4 | 2.2 | 2.2 | 2.3 | 2.2 | 2.1 | 2.1 | 190 ×10^4 | 186 ×10^4 | Molecular weight (×10^4), irradiation time 300 h ([1]; additive 10 mg/mL): 187 ×10^4; Percent Conjugation (%), irradiation time 0 h ([1]; additive 10 mg/mL): 2.2%; Percent Conjugation (%), irradiation time 150 h ([1]; additive 10 mg/mL): 2.2%; Percent Conjugation (%), irradiation time 300 h ([1]; additive 10 mg/mL): 2.2%; suppressing drops in the molecular weight and percent conjugation [2, 3]: could suppress drops in the molecular weight and percent conjugation for irradiation periods that did not exceed about 100 hours; Molecular weight (×10^4), irradiation time 0 h [2, 5]: 190 ×10^4; Molecular weight (×10^4), irradiation time 25 h [2, 5]: 180 ×10^4; Molecular weight (×10^4), irradiation time 50 h [2, 5]: 175 ×10^4; Molecular weight (×10^4), irradiation time 100 h [2, 5]: 146 ×10^4; Molecular weight (×10^4), irradiation time 150 h [2, 5]: 135 ×10^4; Molecular weight (×10^4), irradiation time 300 h [2, 5]: 97 ×10^4; Percent Conjugation (%) of MTX, irradiation time 0 h [2, 5]: 2.2%; Percent Conjugation (%) of MTX, irradiation time 25 h [2, 5]: 2.2%; Percent Conjugation (%) of MTX, irradiation time 50 h [2, 5]: 2.2%; Percent Conjugation (%) of MTX, irradiation time 100 h [2, 5]: 1.9%; Percent Conjugation (%) of MTX, irradiation time 150 h [2, 5]: 2.1%; Percent Conjugation (%) of MTX, irradiation time 300 h [2, 5]: 2.0%
O=C([O-])c1ccccc1O.[Na+] [Na salicylate, sodium salicylate] | 186 ×10^4 | 184 ×10^4 | 163 ×10^4 | 2.2 | 2.1 | 2.2 |  |  |  |  |  |  |  |  |  |  |  |  | 185 ×10^4 | 190 ×10^4 | Molecular weight (×10^4), irradiation time 300 h ([1]; additive 10 mg/mL): 179 ×10^4; Percent Conjugation (%), irradiation time 0 h ([1]; additive 10 mg/mL): 2.2%; Percent Conjugation (%), irradiation time 150 h ([1]; additive 10 mg/mL): 2.2%; Percent Conjugation (%), irradiation time 300 h ([1]; additive 10 mg/mL): 2.1%; stabilizing effects (suppressing effects on the drop in molecular weight and the drop in percent conjugation of MTX) ([1]; with light-shielding film LUMICOOL 1905): comparable to those obtained in the case where complete shielding of light was ensured by aluminum foil; Molecular weight (×10^4), irradiation time 0 h [2]: 185 ×10^4 and 186 ×10^4; Molecular weight (×10^4), irradiation time 25 h [2]: 176 ×10^4 and 172 ×10^4; Percent Conjugation (%) of MTX, irradiation time 0 h [2]: 2.2%; Percent Conjugation (%) of MTX, irradiation time 25 h [2]: 2.2%; Percent Conjugation (%) of MTX, irradiation time 50 h [2]: 2.1%; Percent Conjugation (%) of MTX, irradiation time 100 h [2]: 2.1% and 1.9%; Percent Conjugation (%) of MTX, irradiation time 150 h [2]: 2.2% and 1.8%; Percent Conjugation (%) of MTX, irradiation time 300 h [2]: 2.2% and 2.0%; suppressing drops in the molecular weight and percent conjugation [2]: considerably effective in suppressing drops in the molecular weight and percent conjugation even when the time of irradiation exceeded 100 hours
O=C([O-])CS.[Na+] [Na thioglycolate, sodium thioglycolate] | 163 ×10^4 | 123 ×10^4 | 44 ×10^4 | 2.1 | 2.2 | 2.2 | 163 ×10^4 | 136 ×10^4 | 97 ×10^4 | 8 ×10^4 | 5 ×10^4 | 2 ×10^4 | 2.1 | 2.2 | 2.2 | 1.4 | 1.0 | 0.4 | 181 ×10^4 | 170 ×10^4 | Molecular weight (×10^4), irradiation time 300 h ([1]; additive 10 mg/mL): 157 ×10^4; Percent Conjugation (%), irradiation time 0 h ([1]; additive 10 mg/mL): 2.1%; Percent Conjugation (%), irradiation time 150 h ([1]; additive 10 mg/mL): 2.1%; Percent Conjugation (%), irradiation time 300 h ([1]; additive 10 mg/mL): 2.2%; suppressing drops in the molecular weight and percent conjugation ([2]; added at 10 mg/ml, not shielded from light): considerably effective in suppressing drops in the molecular weight and percent conjugation even when the time of irradiation exceeded 100 hours; Molecular weight (×10^4), irradiation time 0 h [2, 5]: 181 ×10^4; Molecular weight (×10^4), irradiation time 25 h [2, 5]: 166 ×10^4; Molecular weight (×10^4), irradiation time 50 h [2, 5]: 169 ×10^4; Molecular weight (×10^4), irradiation time 100 h [2, 5]: 163 ×10^4; Molecular weight (×10^4), irradiation time 150 h [2, 5]: 154 ×10^4; Molecular weight (×10^4), irradiation time 300 h [2, 5]: 5 ×10^4; Percent Conjugation (%) of MTX, irradiation time 0 h [2, 5]: 2.1%; Percent Conjugation (%) of MTX, irradiation time 25 h [2, 5]: 2.2%; Percent Conjugation (%) of MTX, irradiation time 50 h [2, 5]: 2.3%; Percent Conjugation (%) of MTX, irradiation time 100 h [2, 5]: 2.0%; Percent Conjugation (%) of MTX, irradiation time 150 h [2, 5]: 2.2%; Percent Conjugation (%) of MTX, irradiation time 300 h [2, 5]: 1.4%
